The target of assay [1] is T1, Fatty acid-binding protein, adipocyte (Homo sapiens, UniProt P15090). In words: Inhibition of FABP4 (unknown origin) incubated for 10 mins by fluorescence based analysis.
In assay [2] the target is T1, Fatty acid-binding protein, adipocyte. In words: Inhibition of human FABP4.
Assay [3] has the same target. In words: Displacement of 1,8-ANS from human recombinant FABP4 incubated for 4 mins by fluorescence based analysis.

T1 sequence (P15090 whole entry): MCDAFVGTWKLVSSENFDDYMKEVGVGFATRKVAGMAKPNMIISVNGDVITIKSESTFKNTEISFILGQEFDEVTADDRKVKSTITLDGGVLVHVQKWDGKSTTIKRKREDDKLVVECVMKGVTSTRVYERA

With `C=CCn1c(=O)[nH]c(=O)c2[nH]c(-c3ccc(OCCNC(=O)c4ccccc4)cc3)cc21`, in assay [1], the IC50 – broadly, the concentration at which inhibition is half-maximal – was determined as 2.23 µM.

`O=C(O)Cc1cn(-c2ccccc2-c2nc(-c3ccc(Cl)cc3)c(-c3ccccc3)s2)nn1` showed an IC50 in assay [1] of 4.31 µM. `O=C(O)c1cccc(NS(=O)(=O)c2ccc(Br)c3ccccc23)c1` registered an IC50 in assay [2] of 5.5 µM.

Consider `COc1cc(Br)c(C(C)(C)C)cc1S(=O)(=O)Nc1ccccc1C(=O)O`, for which the IC50 in assay [2] came out at 1.5 µM. On to `CC(C)OC(=O)C(C(=O)C(F)(F)F)c1cc(NS(=O)(=O)c2ccccc2)ccc1O` (configuration not stated), for which the IC50 in assay [3] came out at 3.5 µM. Regarding `O=C(O)Cc1cn(-c2ccccc2-c2nc(-c3ccccc3)c(-c3ccccc3)s2)nn1`, the IC50 in assay [1] came out at 5.59 µM. Still for that read-out and setting: the value for `O=C(O)Cc1cn(-c2ccccc2-c2nc(-c3ccc4ccccc4c3)c(-c3ccccc3)s2)nn1` was 3.7 µM.

Source of the values: ChEMBL document CHEMBL5107983, “Adipocyte fatty acid binding protein 4 (FABP4) inhibitors. An update from 2017 to early 2022” (Eur J Med Chem, 2022).
